Laboratory results reported in patent publication US10363284B2, “β-hairpin peptidomimetics” (POLYPHOR AG, priority 2012, dated 2019).
Positions of bridges follow the written chain, without caps; N, C: chain ends. Non-standard residues stand in square brackets, D forms with d. Residues, ends and D or L forms follow the SMILES beside them. dLys(iPr) = CC(C)NCCCC[C@@H](N)C(=O)O; Lys(iPr) = CC(C)NCCCC[C@H](N)C(=O)O; Orn(iPr) = CC(C)NCCC[C@H](N)C(=O)O; Ac3c = NC1(C(=O)O)CC1

Legend:
in vitro = assay type: cell-based
Method: (§1) Namalwa cells (CXCR4 natively expressing non-adherent cells, ATCC CRL-1432) were cultured in RPM11640 plus 10% FBS, and pen/strept. HELA cells were maintained in RPMI1640 plus 10% FBS, pen/strept and 2 mM L-glutamine. Cos-7 cells were grown in DMEM medium with […] glucose supplemented with 10% FCS, pen/strept and 2 mM L-glutamine. All cell lines were grown at 37° C. at 5% CO2. Cell media, media supplements, PBS-buffer, HEPES, antibiotic/antimycotic, pen/strept, non essential amino acid, L-glutamine, β-mercaptoethanol and sera were purchased from Gibco (Pailsey, UK). All fine chemicals were supplied by Merck (Darmstadt, Germany).
The cytotoxicity of the peptides to HELA cells (Acc57) and COS-7 cells (CRL-1651) was determined using the MTT reduction assay (T. Mossman, J. Immunol. Meth. 1983, 65, 55-63; M. V. Berridge, A. S. Tan, Arch. Biochem. Biophys. 1993, 303, 474-482). Briefly, the method was as follows: 4000 HELA cells/well and 3400 COS-7 cells/well were seeded and grown in 96-well microtiter plates for 24 h at 37° C. at 5% CO2. Thereafter, time zero (Tz) was determined by MTT reduction (see below). The supernatant of the remaining wells was discarded, and fresh medium and compounds in serial dilutions (12.5, 25 and 50 μM, triplicates; 0 μM, blank) were pipetted into the wells. After incubation of the cells for 48 h at 37° C. at 5% CO2 the supernatant was discarded again and 100 μL MTT reagent (0.5 mg/mL in RPMI1640 and DMEM, respectively)/well was added. Following incubation at 37° C. for 2-4 h the media were aspirated and the cells were spiked (100 μL isopropanol/well). The absorbance of the solubilized formazan was measured at 595 nm (OD595peptide). For each concentration averages were calculated from triplicates. The percentage of growth was calculated as follows: (OD595peptide−OD595Tz)/(OD595blank−OD595Tz)×100%. The GI50 (Growth Inhibition) concentrations were calculated for each peptide by using a trend line function for the concentrations (50, 25, 12.5 and 0 μM), the corresponding percentages and the value 50, (=TREND (C50:C0,%50:%0, 50).

[1] = Pharmacokinetic study (PK) after intravenous administration; assay type: in vivo, male CD-1 mice; conditions: mouse, i.v. 1 mg/kg; for AUC(0-inf) / Cmax / half-life / clearance / Vd: one-compartmental model; for clearance: read-out: CLiv (converted); for Vd: read-out: Vdis
Method: For the compounds of Ex. 1 and Ex. 2 pharmacokinetic studies after intravenous (i.v.) administration were performed.
30 grams (±20%) male CD-1 mice obtained from Charles River Laboratories Deutschland GmbH were used. The vehicle, phosphate buffered saline, was added to give a final concentration of 0.5 mg/mL of the compound. The volume was 2 mL/kg and the compound was injected to give a final intravenous dose of 1 mg/kg. Approximately 300-400 μL of blood was removed under light isoflurane anesthesia by cardiac puncture at predetermined time intervals (5, 15, 30 min and 1, 2, 3, 4, hours) and added to heparinized tubes. Plasma was removed from pelleted cells upon centrifugation and frozen at −80° C. prior to HPLC-MS analysis.
Aliquots of 50 μL each of mouse plasma of untreated aminals (“blank” mouse plasma) were spiked with known amounts of the compounds Ex. 1 and Ex. 2 in order to obtain 10 plasma calibration samples for each compound in the range 1-4000 ng/mL.
Aliquots of 50 μL each of mouse plasma from treated animals were used as plasma study samples.
All plasma samples were spiked with an appropriate internal standard and extracted with acetonitrile containing 2% formic acid. Supernatants were evaporated to dryness under nitrogen and the remaining solids reconstituted in water+0.2% formic acid/acetonitrile 95/5 (v/v).
Extracts were then analyzed by reverse-phase chromatography (Acquity HSS C18 SB, 100×2.1 mm, 1.8 μm column, Waters), using the following conditions: mobile phases: (A) water+0.1% formic acid/acetonitrile 95/5 (v/v), (B) aceto-nitrile/water+0.1% formic acid 95/5 (v/v), gradient: 1% (B) 0-0.1 min, 40% (B) 0.1-2.5. The detection and quantification was performed by mass spectrometry, with electrospray interface in positive mode and selective fragmentation of analytes (4000 Q Trap mass spectrometer, AB Sciex).
PK parameters were calculated by WinNonLin™ software version 5.3 (Pharsight-A Certara™ Company, Mountain View, Calif. 94041 USA) using a one-compartmental model analysis. PK parameters were determined by least-square fitting of the model to the experimental data.

CXCR4 receptor = biological target: T1, CXCR4 receptor (Homo sapiens, UniProt P61073); assay: Chemotactic assay (cell migration assay), Namalwa cells, SDF-1 gradient; assay type: cell-based
T1 construct: CXCR4 natively expressing non-adherent cells; endogenous in cells; host or cells: Namalwa cells (ATCC CRL-1432)
T1 sequence (P61073 whole entry): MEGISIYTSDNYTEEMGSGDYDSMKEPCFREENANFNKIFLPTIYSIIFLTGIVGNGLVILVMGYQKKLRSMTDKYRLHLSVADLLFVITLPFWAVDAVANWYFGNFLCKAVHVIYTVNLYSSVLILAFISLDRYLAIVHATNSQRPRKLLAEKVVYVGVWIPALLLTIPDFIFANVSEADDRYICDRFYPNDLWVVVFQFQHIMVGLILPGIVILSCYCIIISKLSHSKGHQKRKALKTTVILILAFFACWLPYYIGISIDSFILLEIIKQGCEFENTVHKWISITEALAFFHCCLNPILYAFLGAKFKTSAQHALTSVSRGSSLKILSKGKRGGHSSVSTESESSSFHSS
Method: as §1
The chemotactic response of Namalwa cells (ATCC CRL-1432) to a gradient of stromal cell-derived factor 1α (SDF-1) was measured using a modified Boyden chamber chemotaxis system (ChemoTx; Neuroprobe). […] Migrated cells were transferred using a “funnel” adaptor to a receiving 96-well plate and the cell number was determined by using the CyQuant™ NF cell proliferation assay (Invitrogen) based on the measurement of cellular DNA content via fluorescent dye binding. […] After incubation for 0.5 h at room temperature the plate was sealed and the fluorescence intensity of each sample was measured by using a Wallac 1420 VICTOR^2™ plate reader (PerkinElmer) with excitation at 485 nm and emission detection at 535 nm. […]

[2] = male, CD-1, plasma, iv, read-out: Calc. Conc. (plasma)

**Q.** Which GI50 at 48 h (in vitro; African green monkey) does the source give for CC(C)NCCCC[C@@H]1NC(=O)[C@H](CCC(N)=O)NC(=O)[C@H](Cc2ccc(O)cc2)NC(=O)[C@@H]2CSSC[C@H](NC(=O)[C@H](Cc3ccc(O)cc3)NC(=O)[C@H](Cc3c[nH]cn3)NC(=O)[C@H](Cc3ccc(O)cc3)NC(=O)[C@@H]3CCCN3C(=O)[C@@H](CCCCNC(C)C)NC1=O)C(=O)N[C@@H](CO)C(=O)N[C@@H](C)C(=O)N1CCC[C@@H]1C(=O)N[C@@H](CCCNC(C)C)C(=O)N[C@@H](CCCNC(=N)N)C(=O)N[C@@H](Cc1ccc(O)cc1)C(=O)N2 [Ex. 1, cyclo(-Tyr^1-His^2-Tyr^3-Cys^4-Ser^5-Ala^6-^DPro^7-Orn(iPr)^8-Arg^9-Tyr^10-Cys^11-Tyr^12-Gln^13-Lys(iPr)^14-^DLys(iPr)^15-Pro^16-), disulfide bond between Cys^4 and Cys^11] (cyclo(A[dP][Orn(iPr)]RYCYQ[Lys(iPr)][dLys(iPr)]PYHYCS); disulfide 6-15) here?
**A.** Its GI50 at 48 h is greater than 50 µM.

**Q.** What about the GI50 at 48 h (in vitro; human) of the same compound?
**A.** Its GI50 at 48 h is greater than 42 µM.

**Q.** And the AUC(0-inf) ([1]; male, CD-1, plasma, iv)?
**A.** Its AUC(0-inf) is 1020 ng·h/mL.

**Q.** What about the Cmax ([1]; male, CD-1, plasma, iv) of the same compound?
**A.** The Cmax was 1880 ng/mL.

**Q.** And the half-life ([1]; male, CD-1, plasma, iv)?
**A.** Its half-life is 24 min.

**Q.** And the clearance ([1]; male, CD-1, plasma, iv)?
**A.** Its clearance is 16.4 mL/min/kg.

**Q.** And the Vd ([1]; male, CD-1, plasma, iv)?
**A.** Its Vd is 0.532 L/kg.

**Q.** What about the level at 0.083 h [1, 2] of the same compound?
**A.** Its level at 0.083 h is 1690 ng/mL.

**Q.** What about the level at 0.25 h [1, 2] of the same compound?
**A.** The level at 0.25 h was 1050 ng/mL.

**Q.** And the level at 0.5 h [1, 2]?
**A.** The level at 0.5 h was 749 ng/mL.

**Q.** And the level at 1 h [1, 2]?
**A.** The level at 1 h was 385 ng/mL.

**Q.** What about the level at 2 h [1, 2] of the same compound?
**A.** The level at 2 h was 61 ng/mL.

**Q.** What about the “Calc. Conc. (plasma)” value ([1]; time 3 h) of the same compound?
**A.** The value was “<LoQ”.

**Q.** What about the “Calc. Conc. (plasma)” value ([1]; time 4 h) of the same compound?
**A.** Its value is “<LoQ”.

**Q.** What about the IC50 (CXCR4 receptor) of the same compound?
**A.** The IC50 was 0.00017 ± 0.0001 µM.

**Q.** With CC(C)NCCCC[C@@H]1NC(=O)[C@H](CCC(N)=O)NC(=O)[C@H](Cc2ccc(O)cc2)NC(=O)[C@@H]2CSSC[C@H](NC(=O)[C@H](Cc3ccc(O)cc3)NC(=O)[C@H](Cc3c[nH]cn3)NC(=O)[C@H](Cc3ccc(O)cc3)NC(=O)[C@@H]3CCCN3C(=O)[C@H]3CCCN3C1=O)C(=O)N[C@@H](CO)C(=O)NC1(CC1)C(=O)N1CCC[C@@H]1C(=O)N[C@@H](CCCNC(C)C)C(=O)N[C@@H](CCCNC(=N)N)C(=O)N[C@@H](Cc1ccc(O)cc1)C(=O)N2 [Ex. 2, cyclo(-Tyr^1-His^2-Tyr^3-Cys^4-Ser^5-Acc^6-^DPro^7-Orn(iPr)^8-Arg^9-Tyr^10-Cys^11-Tyr^12-Gln^13-Lys(iPr)^14-^DPro^15-Pro^16-), disulfide bond between Cys^4 and Cys^11] (cyclo(YHYCS[Ac3c][dP][Orn(iPr)]RYCYQ[Lys(iPr)][dP]P); disulfide 4-11) as the compound, how does the GI50 at 48 h (in vitro; African green monkey) read?
**A.** The GI50 at 48 h was greater than 50 µM.

**Q.** And the GI50 at 48 h (in vitro; human)?
**A.** Its GI50 at 48 h is greater than 34 µM.

**Q.** What about the AUC(0-inf) ([1]; male, CD-1, plasma, iv) of the same compound?
**A.** The AUC(0-inf) was 1460 ng·h/mL.

**Q.** And the Cmax ([1]; male, CD-1, plasma, iv)?
**A.** The Cmax was 1470 ng/mL.

**Q.** What about the half-life ([1]; male, CD-1, plasma, iv) of the same compound?
**A.** Its half-life is 42 min.

**Q.** What about the clearance ([1]; male, CD-1, plasma, iv) of the same compound?
**A.** The clearance was 11.4 mL/min/kg.

**Q.** What about the Vd ([1]; male, CD-1, plasma, iv) of the same compound?
**A.** Its Vd is 0.681 L/kg.

**Q.** What about the level at 0.083 h [1, 2] of the same compound?
**A.** The level at 0.083 h was 1250 ng/mL.

**Q.** What about the level at 0.25 h [1, 2] of the same compound?
**A.** The level at 0.25 h was 1210 ng/mL.

**Q.** What about the level at 0.5 h [1, 2] of the same compound?
**A.** Its level at 0.5 h is 996 ng/mL.

**Q.** And the level at 1 h [1, 2]?
**A.** Its level at 1 h is 516 ng/mL.

**Q.** And the level at 2 h [1, 2]?
**A.** The level at 2 h was 117 ng/mL.

**Q.** What about the level at 3 h ([1]; male, CD-1, plasma, iv, time 3 h, read-out: Calc. Conc. (plasma)) of the same compound?
**A.** The level at 3 h was 24 ng/mL.

**Q.** And the level at 4 h ([1]; male, CD-1, plasma, iv, time 4 h, read-out: Calc. Conc. (plasma))?
**A.** Its level at 4 h is 14 ng/mL.

**Q.** And the IC50 (CXCR4 receptor)?
**A.** Its IC50 is 0.00032 ± 0.0001 µM.
